What all share (assay): Antibacterial MIC, standard microtitration
Common to all, as to format: cell-based

Test [1] has as its system E. coli B90. Conditions: Escherichia coli, Gram negative, read-out: Minimum Inhibitory Concentrations. How it is done:
(§1) The compounds of the present invention were tested against an assortment of gram positive and gram negative organisms using standard microtitration techniques (Cohen, et. al. Antimicrobial Agents Chemother. 1985, 28, 766; Heifetz, et. al. Antimicrobial Agents Chemother. 1974, 6, 124) and the results are given in Table 1.

Test [2] deals with S. pyogenes C203. Conditions: Streptococcus pyogenes, Gram positive, read-out: Minimum Inhibitory Concentrations. How it is done:
as §1

The subject of test [3] is E. Coli MC4100. Conditions: Escherichia coli, Gram negative, read-out: Minimum Inhibitory Concentrations. How it is done: as §1
Test [4] has as its system E. coli Tol C. Conditions: Escherichia coli, read-out: Minimum Inhibitory Concentrations. How it is done:
as §1

Test [5] deals with B. subtilis RB1. The conditions noted are these: Bacillus subtilis, Gram positive, read-out: Minimum Inhibitory Concentrations. How it is done:
as §1

The test system of test [6] is S. aureus 29213. Conditions: Staphylococcus aureus, Gram positive, read-out: Minimum Inhibitory Concentrations. How it is done:
as §1

Data on four molecules can be found in patent US6057315A, “Antibacterial agents” (Warner-Lambertt Company, priority 1999, dated 2000).

The structures appear in SMILES notation. Values after ≈ are worked out from the molar mass of the structure shown. Where only a bound is given, the exact number is not on record here.

Regarding `CCCc1c(O)cc2oc3cc(Cl)c(C=O)n3c(=O)c2c1O` [Example 9, 2-Chloro-6,8-dihydroxy-9-oxo-7-propyl-9H-pyrrolo[2,1-b][1,3]benzoxazine-1-carboxaldehyde], the MIC in test [1] is 4 µg/mL (≈ 12.4 µM); in test [2], 4 µg/mL (≈ 12.4 µM); in test [3] it was over 64 µg/mL; in test [4], 2 µg/mL (≈ 6.22 µM); in test [5] it was 1 µg/mL (≈ 3.11 µM); in test [6] it was 4 µg/mL (≈ 12.4 µM).
Consider `CCCc1c(O)cc2oc3cccn3c(=O)c2c1O` [Example 6, 6,8-Dihydroxy-7-propyl-9H-pyrrolo[2,1-b][1,3]benzoxazin-9-one], for which the MIC in test [1] is 4 µg/mL (≈ 15.4 µM); in test [2], 4 µg/mL (≈ 15.4 µM); in test [3], over 64 µg/mL; in test [4] it was 2 µg/mL (≈ 7.71 µM); in test [5], 4 µg/mL (≈ 15.4 µM); in test [6], 2 µg/mL (≈ 7.71 µM).
Take `CCCc1c(O)cc2oc3cc(Cl)c(C=NO)n3c(=O)c2c1O` [Example 10, 2-Chloro-6,8-dihydroxy-9-oxo-7-propyl-9H-pyrrolo[2,1-b][1,3]benzoxazine-1-carboxaldehyde, oxime]: the MIC in test [1] is over 64 µg/mL; in test [2] it was 16 µg/mL (≈ 47.5 µM); in test [3], over 64 µg/mL; in test [4], 8 µg/mL (≈ 23.8 µM); in test [5], 32 µg/mL (≈ 95 µM); in test [6], 32 µg/mL (≈ 95 µM).
Turning to `CCCc1c(OC(C)=O)cc2oc3cc(Cl)cn3c(=O)c2c1OC(C)=O` [Example 13, 6,8-Bis(acetyloxy)-2-chloro-7-propyl-9H-pyrrolo [2,1-b][1,3]benzoxazin-9-one], the MIC was 64 µg/mL (≈ 169 µM) in test [1]; 4 µg/mL (≈ 10.6 µM) in test [2]; over 64 µg/mL in test [3]; 8 µg/mL (≈ 21.2 µM) in test [4]; 8 µg/mL (≈ 21.2 µM) in test [5]; 4 µg/mL (≈ 10.6 µM) in test [6].
